Results on 1 molecule are retold here after US6646006B2, “Enhancement of vascular function by modulation of endogenous nitric oxide production or activity” (The Board of Trustees of the Leland Stanford Junior …, priority 1993, dated 2003).

Structures are written as SMILES. Entries after “also recorded” stand apart in the source; their conditions may differ.

Series [1] deals with hypercholesterolemic rabbits. Kind of series: Histomorphometry and lesion surface area planimetry of thoracic aorta and left main coronary artery. Format: in vivo, rabbit. An excerpt:
Study design: (See, Cooke et al., 1992, supra) Male New Zealand white rabbits (n=49) were assigned to one of three treatment groups: 10 were fed with normal rabbit chow for ten weeks (Control); 19 received chow enriched with 1% cholesterol (Chol); and 20 received a 1% cholesterol diet supplemented with 2.25% L-arginine hydrochloride in the drinking water (Arg.). […] Subsequently the animals were sacrificed and the left main coronary artery and the thoracic aorta were harvested for studies of vascular reactivity and histomorphometry. In some animals, blood was collected for studies of platelet and monocyte reactivity.
By contrast, the intimal cross-sectional area (i.e. amount of atherosclerotic plaque) of vessels from hypercholesterolemic animals receiving L-arginine supplementation was reduced in comparison to those from animals receiving cholesterol diet alone. In the Arg animals the reduction in the intimal lesion was most pronounced in the ascending thoracic aorta and left main coronary artery.
Changes in lesion surface area: In a second series of studies, the extent of the thoracic aorta involved by lesions was examined. In hypercholesterolemic rabbits receiving vehicle (n=6) or L-arginine supplement (n=6), thoracic aortae (from left subclavian artery to diaphragm) were harvested after ten weeks of treatment, bisected longitudinally, and stained with oil-red O. Vessels were photographed and vessel and lesion surface area determined by planimetry. Approximately 40% of the total surface area was covered with plaque in thoracic aortae from hypercholesterolemic animals receiving vehicle, whereas in thoracic aortae from arginine-treated hypercholesterolemic animals, less than 10% of the surface area was covered with plaque (FIG. 1).

Series [2] relates to hypercholesterolemic rabbits. Kind of series: Regression of pre-existing atherosclerosis in hypercholesterolemic rabbits. It is filed as in vivo, rabbit. To be noted: for Lesion surface area of thoracic aortae: all arginine treated animals weeks 14-23 vs vehicle. An excerpt:
This is clinically important if arginine is to be useful in the treatment of pre-existing atherosclerosis in humans. Accordingly, New Zealand white rabbits (n=85) received normal chow or 0.5% cholesterol chow for 10 weeks. Subsequently, half of the hypercholesterolemic rabbits were given 2.25% (W/V) L-arginine in their drinking water. Thoracic aortae were harvested at weeks 10, 14, 18, or 23. Rings of aorta were used to assess NO-dependent vasodilation to acetylcholine (ACh). Maximal relaxation to ACh in the hypercholesterolemic rabbits receiving vehicle (CHOL) became progressively attenuated from 53.4% (at week 10) to 17.4% (by week 23). […] By contrast, hypercholesterolemic animals receiving arginine (ARG) manifested improved endothelium-dependent relaxation associated with a reduction of plaque area at 14 and 18 weeks.

The test system of a further series is platelets. Nature of the series: Platelet aggregometry in hypercholesterolemic humans after oral L-arginine. Format: in vivo, human. An excerpt:
FIG. 13 is a set of histograms showing aggregation of platelets obtained in hypercholesterolemic humans (hc), and individuals with normal cholesterol levels (nc). Platelet aggregation ex vivo in response to adenosine diphosphate (ADP) is increased in hc individuals in comparison to normal individuals. […] (See Ex. 16)
In this study we tested the hypothesis that chronic L-arginine supplementation would inhibit platelet reactivity in hypercholesterolemic humans. Venous blood was collected from normal (NC; n=11) and hypercholesterolemic (HC; n=22) volunteers for isolation of platelet-rich plasma and aggregometry. […]

Series [3] relates to forearm resistance vessels. Kind of series: Forearm blood flow response to methacholine (plethysmography) after intravenous L-arginine. It is filed as in vivo, human. An excerpt:
The control subject population in this study included 11 normal volunteers comprising (10 males and 1 female). Their ages ranged from 31 to 49 and averaged 39±2 yr. There were 14 patients with hypercholesterolemia. Hypercholesterolemia was defined as a serum LDL cholesterol level greater than the 75th percentile adjusted for age and sex. These individuals included 11 males and 3 females whose ages ranged from 22 to 48 and averaged 38±2 years.
Under local anesthesia and sterile conditions, a polyethylene catheter was inserted into a brachial artery of each subject for determination of blood pressure and for infusion of drugs. A separate polyethylene catheter was inserted into the antecubital vein for infusion of L-arginine. Bilateral forearm blood flow was determined by venous occlusion strain gauge plethysmography, using calibrated mercury-in-silastic strain gauges, and expressed as ml/100 ml tissue per min.
To assess NO-dependent vasodilation, methacholine chloride (which induces the endothelium to release NO) was administered via the brachial artery. Forearm blood flow was measured during infusion of methacholine chloride at concentrations of 0.3, 3, and 10 μg/min each for 3 min.
After completion of the methacholine chloride infusions, all normal subjects and 10 individuals with hypercholesterolemia were given L-arginine intravenously over 30 minutes and then the methacholine infusions were repeated. D-arginine, the enantiomer of L-arginine, is not a precursor of NO. Thus, to ensure that any observed effects of L-arginine were due to its contribution to the synthesis of NO and not just secondary to its physiochemical properties, five individuals with hypercholesterolemia received D-arginine intravenously.

For a further series, the system named is coronary arteries. Kind of series: Coronary response to intracoronary acetylcholine after intravenous L-arginine in cardiac transplant recipients. It is filed as in vivo, human. On the procedure: Cardiac transplant recipients scheduled for elective annual coronary angiography at Stanford University hospital were screened for possible participation in the study. The study protocol was approved by the Stanford University Committee on Human Subjects in Medical Research. All patients gave written informed consent. Eighteen patients who had cardiac transplantation 1 to 13 years previously were studied.
Vasoactive medications were discontinued at least 12 hours before the study. […] An infusion catheter was then advanced over a Doppler flow velocity guide wire into a nonbranching segment of the coronary artery for infusion of acetylcholine (which stimulates the endothelium to release NO). After baseline angiography was performed, increasing concentrations of acetylcholine were serially infused over 3 minutes. Infusion of acetylcholine continued until the maximum dose (10^−4 mol/L) was reached or until total coronary occlusion occurred. Then an intravenous infusion of L-arginine (30 g over 15 minutes) was performed. Thereafter, the intracoronary infusion of acetylcholine was repeated. Coronary angiography and Doppler flow velocity recording was performed at the end of the L-arginine infusion and after the infusion of each concentration of acetylcholine.

As to `N=C(N)NCCC[C@H](N)C(=O)O` [L-arginine], the “atherosclerotic plaque in the left main coronary artery” value in series [1] (hypercholesterolemic animals receiving arginine) is recorded as “essentially no atherosclerotic plaque developed”. For the same molecule, in series [1] (ten weeks, oil-red O, planimetry), the “surface area of thoracic aorta covered with plaque” value is reported as “less than 10%”. Moreover, in series [1] (vs cholesterol diet alone), the “intimal cross-sectional area (amount of atherosclerotic plaque)” value is given as “reduced”. For the same molecule, in series [2] (23 weeks, 3 of 7 ARG animals with persistent improvement), the “plaque area of total surface of thoracic aorta” value is 5.4%. Also, in series [2] (ARG animals), the “generation of vascular NO” value is recorded as “increased generation”. Also, the “generation of vascular superoxide anion” value in series [2] (ARG animals) is given as “reduced generation”. In addition, in series [2] (ARG animals at 14 and 18 weeks), the plaque area result is reported as “reduction”. For the same molecule, in series [2] (ARG animals, 14 and 18 weeks), the endothelium-dependent relaxation result is given as “improved”. Moreover, the entries for the “Lesion surface area of thoracic aortae” value in series [2] and in series [2] (listed as arginine) were “significantly reduced” and “reduced”, respectively. Further, the “platelet aggregation in response to ADP” value with platelets (2 weeks of oral L-arginine) is given as “attenuated”. For the same molecule, in the series on platelets (two weeks, collagen 5 mg/ml), the “aggregability of HC platelets” value is listed as “reduced”. Also, the “augmentation of the vasodilation to methacholine chloride” value in series [3] (hypercholesterolemic subjects, intravenous over 30 minutes) is given as 25%. Moreover, the “complications or side-effects of the infusions” value in series [3] (intravenous) is recorded as “no complications or side-effects”. Further, in series [3] (normal subjects, intravenous over 30 minutes), the “vasodilation during methacholine chloride” value is recorded as “did not potentiate”. The “complications or side-effects of the infusion” value in the series with coronary arteries (30 g i.v. over 15 minutes) was “no complications or side-effects”. In addition, the “Epicardial coronary vasoconstriction caused by acetylcholine” value in the series on coronary arteries (acetylcholine 10^−4 mol/L, after L-arginine 30 g i.v. over 15 minutes) was −2.8%. Further, in the series on coronary arteries (after L-arginine 30 g i.v.), the “increase in coronary blood flow to acetylcholine” value is “significantly enhanced; also recorded: improved”.
